Source: patent US8779006B2, “Compositions and methods for treatment and prevention of osteoarthritis” (Nucitec S.A. de C.V., priority 2007, dated 2014)

Experiments:
[1] = test system: patients with OA of the knee; experiment: Example 2 randomized double-blind active-controlled study: WOMAC index; format: in vivo, human
Description: (§1) This was a 16-week, randomized, double-blind, active-controlled, parallel-group study. The study received Ethics Committee approval, was performed in accordance with the ICH Harmonized Guidelines for Good clinical Practice (GPC) and the Declaration of Helsinki. All patients provided written, informed consent before the start of the study.
(§2) 117 patients with OA of the knee (according to the American College of Rheumatology criteria) were included in the study. Patients were enrolled by public advertising and were studied at the San Jose Hospital in Queretaro, México. Entry criteria included: willingness to participate in the study, male and female patients aged at least 40 years of age with symptomatic evidence of OA in the knee for at least 1 year, radiographic evidence of Kellgren and Lawrence grade II to IV OA of the knee, and no intra-articular injection of corticosteroids within the last 3 months. Patients were excluded if they had: any history of adverse reaction to the study drugs, current pregnancy status, uncontrolled hypertension, active infection, undergone surgery/arthroscopy within three months, diagnosis of radiographic OA of Kellgren and Lawrence grade I.
(§3) Participants were assessed in-person during 6 visits conducted at monthly intervals. After giving written informed consent (visit #1), patients were screened and selected according to the predetermined criteria. Visit #2 was the baseline assessment. During this visit selected patients were assigned a unique patient identification number and randomized to receive 1 intra-articular monthly injection (10 mL) of Kondrium™, Kondrium™-F or methylprednisolone (80 mg) 1 month apart during the next 3 months (visits 3, 4 and 5). Visit #3, #4 and #5 served as a midpoint assessment and visit #6 was the final assessment corresponding to the end of the intervention period of the study. Kondrium™ is an aqueous formulation that contains 6.75% (w/v) sodium bicarbonate and 0.75% (w/v) calcium gluconate. Kondrium™-F is an aqueous formulation that contains 6.75% (w/v) sodium bicarbonate and 1.5% (w/v) calcium gluconate.
(§4) The primary efficacy variable was the change from the baseline to final assessment in the Western Ontario and McMastern University OA index (WOMAC subscale score for pain), and Lequesne's functional index.
(§5) Data analysis was performed using SPSS for Windows version 10.0. Baseline demographic variables and compliance were analyzed by means of the χ^2 test. A univariate analysis of variance (ANOVA) was used to determine whether the three treatment groups differed in mean values of change from a baseline in WOMAC and Lequesne's functional index. Treatment effect is shown as the main effect controlled by the baseline values. Pairwise comparisons between treatments were done with the LSD test. All statistical tests were performed at the 0.05 level of significance.

[2] = test system: patients with OA of the knee; experiment: Example 2 randomized double-blind active-controlled study: Lequesne's functional index; format: in vivo, human
Description: as §1, §2, §3, §4, §5

[3] = after 4 months of treatment, monthly intra-articular injection

For `C[C@H]1C[C@@H]2[C@H]([C@@H](O)C[C@@]3(C)[C@H]2CC[C@]3(O)C(=O)CO)[C@@]2(C)C=CC(=O)C=C12` [Methylprednisolone, methylprednisolone], the “WOMAC Pain, change, mean” value [1, 3] was −2.76, the “WOMAC Pain, final, mean” value [1, 3] was 2.57 and the “WOMAC Physical functioning, change, mean” value [1, 3] was −7.34. The “WOMAC Physical functioning, final, mean” value [1, 3] was 8.19, the “WOMAC Stiffness, change, mean” value [1, 3] was −2.42 and the “WOMAC Stiffness, final, mean” value [1, 3] was 2.77. For the same molecule, the “WOMAC Pain, baseline, mean” value ([1]; before treatment) was 4.72, the “WOMAC Physical functioning, baseline, mean” value ([1]; before treatment) was 14.47 and the “WOMAC Stiffness, baseline, mean” value ([1]; before treatment) was 4.79. For the same molecule, the “Lequesne functional index Maximum Walking Distance, change, mean” value [2, 3] was −0.75, the “Lequesne functional index Maximum Walking Distance, final, mean” value [2, 3] was 2.90 and the “Lequesne functional index Normal activities, change, mean” value [2, 3] was −2.80. For the same molecule, the “Lequesne functional index Normal activities, final, mean” value [2, 3] was 4.62, the “Lequesne functional index Pain, change, mean” value [2, 3] was −1.96 and the “Lequesne functional index Pain, final, mean” value [2, 3] was 2.86. The “Lequesne functional index Maximum Walking Distance, baseline, mean” value ([2]; before treatment) was 3.24, the “Lequesne functional index Normal activities, baseline, mean” value ([2]; before treatment) was 6.93 and the “Lequesne functional index Pain, baseline, mean” value ([2]; before treatment) was 4.34. The “mean change in the Lequesne's functional index” value ([2]; end of study vs baseline) was −5.2.
